The source of these data is US20240108634A1, “COMPOSITIONS AND METHODS FOR INHIBITING YAP” (The United States Government as represented by the …, priority 2021, published 2024).

Assay [1] has as its target T1, YAP (Homo sapiens, UniProt P46937).
T1 construct: endogenous in cells; host or cells: LN229, T98G, GBM39
Description: Western blot of YAP and TEAD levels in GBM lines. It counts as cell-based. The following applies: LN229, T98G, GBM39; 18 h, increasing concentrations. The protocol:
(§1) Levels of total YAP were determined via ELISA. […] Immunoprecipitates were immunoblotted for the indicated proteins. […] Cells were treated with the indicated concentrations of inhibitor for 18 h and mRNA extracted for real time RT-PCR analyses. Measurements were performed in quadruplicate and means and+S.D. are shown. […] Cells were treated with (+) or without (−) NSC682769 (100 nM, 18 h) and harvested and separated into cytoplasmic and nuclear cellular fractions. Cytoplasmic versus nuclear material was subsequently immunoblotted for the indicated proteins. […] Values in top right corner of panels correspond to the percentage of nuclear localized YAP. […]
(§2) Protein and mRNA analyses, immunoprecipitation, in vitro bead-coupled inhibitor binding assays and HPLC analyses. […] Antigen-antibody complexes were detected using appropriate horseradish peroxidase-conjugated secondary antibodies (GE Healthcare) and enhanced chemiluminescence (Amersham ECL Prime). […] For quantitative RT-PCR, extraction of RNA was performed using Trizol® (Life Technologies). Total RNA was then quantified and integrity assessed using an Agilent 2100 Bioanalyzer (Agilent Technology). […] SYBR® Green quantitative PCR (Millipore Sigma) was performed in triplicate in 96-well optical plates on an ABI Prism 7000 Sequence Detection System (Life Technologies) according to the manufacturer's instructions. […]
On the technique in general: In western blotting, separated proteins are transferred to a membrane and probed.

For assay [2], the system named is YAP. Description: Western blot of YAP and TEAD levels in GBM lines. It counts as cell-based, human. Particulars: LN229, T98G, GBM39; 18 h, increasing concentrations. On the procedure: as §1, §2
The test system of the next assay is T98G cells. Description: Cell Titer-Glo sensitivity of T98G cells with YAP1 knockdown or overexpression. The following applies: 72 h. It counts as cell-based, human. The source says: Nuclear and cytoplasmic fractions were immunoblotted for YAP, HSP90 and lamin B2. FIG. 4B show quantification of nuclear YAP expression levels from a as determined by densitometric analyses. Relative nuclear YAP1 expression in U87 cells was arbitrarily assigned a value of 1. Nuclear YAP expression in the cell lines is shown as mean+S.D., n=3. […] Relative nuclear YAP expression was obtained from FIG. 4B above. […] Data represent mean±S.D. of three independent experiments (*, P<0.05).
Cell proliferation, clonogenic, migration, invasion and apoptosis assays. Cell proliferation was determined via Cell Titer-Glo® luminescent cell assays (Promega). Clonogenic assays were done by plating a total of 1,000 cells per well in 24-well plates in a total volume of 400 μL using a two-layered soft agar system as previously described (Masri J, et al. (2007) Cancer Res 67: 11712-11720). […]
Increased YAP expression directly correlates with NSC682769 sensitivity in GBM cells. […] To examine whether differences in YAP expression may alter sensitivity to NSC682769, the relative expression of nuclear versus cytoplasmic YAP was determined in a panel of GBM lines (FIG. 4A). […] Cell viability was then determined using ATP-release assays on these lines over a wide range of NSC682769 concentrations and IC50s calculated (FIG. 4C). […]
On the technique in general: In ATP-based viability assays light output follows the ATP content of the culture.

On to `COc1ccc(-c2cc(-c3ccccc3)nc3c2CC(=O)Nc2ccccc2-3)cc1OC` [NSC682769], for which the YAP levels entry on YAP [1] is “decreased”. Besides, in the assay on YAP [2], the TEAD levels result is on record as “unaffected”. In addition, the “Sensitivity versus parental T98G line” value in the assay on T98G cells (T98G with YAP1 knocked down (shRNA)) is “relatively resistant”; with T98G cells (T98G with YAP1 overexpressed), “significantly more sensitive”.
